Test results from publication PMC12250713, “Identification and Characterization of Novel Inhibitors of Human Poly(ADP-Ribose) Polymerase-1” (Molecules, 2025).
Where “and” joins values, the source holds several entries; their conditions need not be identical. Equal values may be shown once. Entries after “also recorded” stand apart in the source; their conditions may differ.

Columns and labels:
hPARP-1 = target: T1, hPARP-1 (Homo sapiens, UniProt P09874); test: hPARP-1 enzyme assay (NAD+ cycling reaction, resorufin fluorescence read-out); format: biochemical; conditions: for IC50: 0.1-50 µM, mean ± SD, two biological replicates; for inhibition at 10 µM: concentration of 10 µM; for decline in PARPi activity compared with compound 54: replacement of the fluoride group; for PARPi activity at the enzyme level compared to the OLP core structure phthalazin-1(2H)-one: own IC50 vs literature IC50 12 µM; for reduction in the PARPi activity compared with compound 57: modification at the thiomethyl group
T1 construct: purchased Bio-Techne (Minneapolis, MN, USA)
Procedure: The putative PARP inhibitors, which were pre-selected in the in silico study, were subsequently evaluated by using an optimized biochemical hPARP-1 enzyme assay. The experiment was performed in black half-area 96-well plates. For the PARP reaction, 12.5 µL of PARP reaction solution were added. The solution was composed of 0.5 µg deoxyribonucleic acid (DNA) sodium salt from calf thymus, 2 U of recombinant hPARP-1, and 1 µL of the compound of interest in PARP reaction buffer (50 mM TRIS and 2 mM MgCl2 in ddH2O, pH = 8). These test compounds’ working solutions were prepared from 20 mM DMSO stock solutions and diluted using PARP reaction buffer to reach 25× of the required final concentration to be tested. […] Afterwards, 12.5 µL of NAD^+ solution were added to all wells to reach a final NAD^+ concentration of 50 nM, and to start the enzyme reaction.
Besides PARP reaction wells, NAD^+ calibration wells were included to measure the linearity of the detection of NAD^+ concentrations. In each well, 12.5 µL of NAD^+ calibration solution were added. The solution was composed of 0.5 µg deoxyribonucleic acid (DNA) sodium salt from calf thymus in PARP reaction buffer. Finally, 12.5 µL of decreasing concentrations of NAD^+ solution were added to the calibration wells (final concentrations: 50, 40, 30, 20, 10, 0 nM).
Subsequently, the assay plate including both the PARP reaction and NAD^+ calibration wells was gently shaken and incubated at 25 °C in the dark for 90 min. After incubation, 25 µL of detection solution were added to each well. […] The assay plate was again gently shaken and incubated at 25 °C in the dark for 40 min.
Following the aforementioned protocol, the compounds that were predicted by the in silico study as putative hPARP-1 inhibitors were tested at two different concentrations (1 and 10 µM). […] The IC50s were calculated by using GraphPad Prism software and a non-linear four-parametric regression function.

BT-474 cells = test: crystal violet (CV) cell viability assay, single and combined with TMZ; format: cell-based
Procedure: (§1) Cells were seeded in 96-well cell culture plates and were allowed to adhere for 24 h in a humidified atmosphere with 5% CO2 at 37 °C. Afterward, cells were treated with the test items at several concentrations for 72 h. […] After finalization of the intended 72 h treatment, the treatment solutions were discarded, and the cells were washed once with PBS. Subsequently, the cells were fixed by incubation in 4% (v/v) paraformaldehyde in PBS for 15 min at room temperature (RT). The fixing solution was discarded, and the cells were allowed to dry at RT for 15 min. The cells were stained with 0.1% (w/v) crystal violet in PBS for 15 min at RT, then washed with ddH2O and dried overnight at RT. […] The obtained absorbance data were normalized based on the negative and positive controls representing 100% and 0% cell viability, respectively. IC50 values were calculated by using a four-parametric non-linear regression analysis in GraphPad Prism software.
(§2) Finally, cell viability was determined by using the CV assay, and IC50 values were calculated as mentioned above.

hPARP-1 in BT-474 cells = target: T2, hPARP-1 in BT-474 cells (Homo sapiens, UniProt P09874); test: fluorescence microscopy, competitive displacement of PARPi-FL; format: cell-based; conditions: BT-474, 72 h with 100 µM compound 57 or 1.56 µM OLP, then 250 nM PARPi-FL 20 min
T2 construct: endogenous in cells; host or cells: BT-474
Procedure: For the determination of the interaction of the proposed PARPi and the PARP binding pocket inside the treated cells, a fluorescence microscopic inspection was performed. Using a green fluorescently labeled molecule named PARPi-FL that is characterized by the ability to occupy specifically the binding pocket of the PARP enzyme. Moreover, in case of its competitive replacement by PARPi molecules a reduction in its fluorescent signal is detectable. Thus, cells were seeded in 6-well plates and incubated in a humidified atmosphere with 5% CO2 for 24 h at 37 °C. […] Subsequently, the treatment solutions were discarded, and the cells were washed with PBS. […] Finally, cells were imaged by using the GFP channel of an EVOS™ FL Auto Imaging System (Thermo Fisher Scientific, Waltham, MA, USA).

MDA-MB-468 cells = test: cells; format: cell-based; conditions: for cytotoxic activity as a monotherapy against MDA-MB-468: CV assay
Procedure: as §1, §2

MCF-7 cells = test: crystal violet (CV) cell viability assay, single and combined with TMZ; format: cell-based; conditions: Homo sapiens, MCF7, 72 h; read-out: IC50 of TMZ, alone or combined
Procedure: as §1, §2

184B5 cells = test: as above; format: cell-based; conditions: Homo sapiens, 184B5, 72 h; read-out: IC50 of TMZ, alone or combined
Procedure: as §1, §2

HCC1937 cells = test: as above; format: cell-based; conditions: Homo sapiens, HCC1937, 72 h; read-out: IC50 of TMZ, alone or combined
Procedure: as §1, §2

T1 sequence (P09874 whole entry): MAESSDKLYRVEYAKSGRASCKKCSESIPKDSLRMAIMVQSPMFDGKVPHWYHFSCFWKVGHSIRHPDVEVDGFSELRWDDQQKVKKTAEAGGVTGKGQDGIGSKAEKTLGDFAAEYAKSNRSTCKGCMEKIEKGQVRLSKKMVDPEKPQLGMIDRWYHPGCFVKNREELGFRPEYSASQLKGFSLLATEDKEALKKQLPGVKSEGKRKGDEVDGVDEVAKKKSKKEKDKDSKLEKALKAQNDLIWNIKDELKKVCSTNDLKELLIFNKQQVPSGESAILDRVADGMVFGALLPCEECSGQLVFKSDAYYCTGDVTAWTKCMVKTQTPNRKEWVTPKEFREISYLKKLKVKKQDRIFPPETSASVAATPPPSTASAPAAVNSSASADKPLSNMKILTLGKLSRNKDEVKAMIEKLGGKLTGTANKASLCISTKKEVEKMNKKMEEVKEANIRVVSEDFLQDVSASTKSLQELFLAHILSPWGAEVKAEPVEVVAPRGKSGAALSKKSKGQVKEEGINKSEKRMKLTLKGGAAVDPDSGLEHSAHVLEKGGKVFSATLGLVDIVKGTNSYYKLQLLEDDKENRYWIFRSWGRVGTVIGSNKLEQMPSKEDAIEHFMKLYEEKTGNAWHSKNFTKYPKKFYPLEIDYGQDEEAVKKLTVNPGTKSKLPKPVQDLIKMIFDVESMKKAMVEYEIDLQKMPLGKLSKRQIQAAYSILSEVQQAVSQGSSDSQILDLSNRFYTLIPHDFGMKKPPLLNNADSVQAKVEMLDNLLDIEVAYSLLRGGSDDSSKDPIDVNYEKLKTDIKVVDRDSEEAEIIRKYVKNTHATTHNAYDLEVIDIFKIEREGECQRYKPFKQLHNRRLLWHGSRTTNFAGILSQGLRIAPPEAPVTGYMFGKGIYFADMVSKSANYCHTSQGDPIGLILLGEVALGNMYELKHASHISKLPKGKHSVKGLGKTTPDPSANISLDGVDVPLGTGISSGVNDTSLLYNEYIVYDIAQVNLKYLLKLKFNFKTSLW
T2 sequence (P09874 whole entry): as above

With `COc1cccc(Nc2nc3ccccc3c(=O)[nH]2)c1` [Compound 18] the IC50 (hPARP-1) was 23.5 ± 8.74 µM and the inhibition at 10 µM (hPARP-1) was > 50%.
With `COc1ccc(C(=O)Nc2nc3c(c(=O)[nH]2)CCCC3)cc1` [Compound 21] the IC50 (hPARP-1) was 14.9 ± 4.92 µM, the inhibition at 10 µM (hPARP-1) was > 50% and the “decline in PARPi activity compared with compound 54” value (shortened to “decline … compared with compound 54”) (hPARP-1) was “at least three-fold”.
`O=c1[nH]nc(CNc2ccc([N+](=O)[O-])cc2)c2ccccc12` [Compound 22] was tested, and the IC50 (hPARP-1) was 4.57 ± 4.89 µM and the inhibition at 10 µM (hPARP-1) was > 50%.
In the case of `O=C(Nc1nc2c(c(=O)[nH]1)CCCC2)c1ccc(Cl)cc1` [Compound 32], the “decline … compared with compound 54” value (hPARP-1) is reported as “at least three-fold”.
With `Cc1ccc(C(=O)Nc2nc3c(c(=O)[nH]2)CCCC3)cc1` [Compound 34] the “decline … compared with compound 54” value (hPARP-1) was “at least three-fold”.
For `COc1ccc(NCc2nnc(O)c3ccccc23)cc1` [Compound 45], the IC50 (hPARP-1) was 3.01 ± 1.19 µM and the inhibition at 10 µM (hPARP-1) was > 50%.
In the case of `O=C(Nc1nc2c(c(=O)[nH]1)CCCC2)c1ccc(F)cc1` [Compound 54], the IC50 (hPARP-1) is reported as 4.56 µM, the inhibition at 10 µM (hPARP-1) is reported as > 50% and the “PARPi activity at the enzyme level compared to the OLP core structure phthalazin-1(2H)-one” value (hPARP-1) is reported as “two-fold higher”.
With `O=c1[nH]nc(-c2ccccc2)c2ccccc12` [Compound 56] the IC50 (hPARP-1) was 6.61 ± 2.09 µM and the inhibition at 10 µM (hPARP-1) was > 50%.
For `CSc1nc2ccccc2c(=O)[nH]1` [Compound 57, 2-(methylthio)quinazolin-4(3H)-one], the IC50 (hPARP-1) was 2.3 µM and 2.32 µM, the inhibition at 10 µM (hPARP-1) was > 50% and the “fold higher hPARP-1-inhibiting activity compared to core structure quinazolin-4(3H)-one” value (hPARP-1; own IC50 vs literature IC50 5.8 µM) was 2.5 fold. The “PARPi activity at the enzyme level compared to the OLP core structure phthalazin-1(2H)-one” value (hPARP-1) was “five-fold higher”, the “IC10 (CV cytotoxicity assay)” value (BT-474 cells; BT-474 cells, 72 h) was 100 µM and the “displacement of PARPi-FL from nuclear hPARP-1 (fluorescence)” value (hPARP-1 in BT-474 cells) was “failed to reach the nuclei of BT-474 cells; also recorded: did not impact the fluorescent appearance of the stain”. The “cytotoxic activity as a monotherapy against MDA-MB-468” value (MDA-MB-468 cells; 72 h) was “such an effect was not observed” and the “synergistic improvement of the TMZ activity by co-treatment” value (MDA-MB-468 cells; co-treatment at IC10 (100 µM compound 57), 72 h) was “did not induce a synergistic improvement”.
In the case of `N#CCc1n[nH]c(=O)c2ccccc12` [Compound 58], the IC50 (hPARP-1) is reported as 4.86 ± 0.63 µM and the inhibition at 10 µM (hPARP-1) is reported as > 50%.
For `CSc1nc2ccccc2c(=O)n1C` [Compound 62], the “hPARP-1 inhibitor activity compared with compound 57 (SAR, in words)” value (hPARP-1) was “complete abolishment of hPARP-1 inhibitor activity” and the IC50 (hPARP-1) was > 10 µM.
For `CSc1nc2ccccc2c(=O)n1Cc1ccccc1` [Compound 63], the “hPARP-1 inhibitor activity compared with compound 57 (SAR, in words)” value (hPARP-1) was “complete abolishment of hPARP-1 inhibitor activity” and the IC50 (hPARP-1) was > 10 µM.
For `COc1cc2nc(SC)[nH]c(=O)c2cc1OC` [Compound 64], the “hPARP-1 inhibitor activity compared with compound 57 (SAR, in words)” value (hPARP-1) was “dramatic decrease in activity” and the IC50 (hPARP-1) was > 10 µM.
In the case of `CSc1nc2ccc([N+](=O)[O-])cc2c(=O)[nH]1` [Compound 65], the “hPARP-1 inhibitor activity compared with compound 57 (SAR, in words)” value (hPARP-1) is reported as “dramatic decrease in activity” and the IC50 (hPARP-1) is reported as > 10 µM.
With `CSc1nc2cc([N+](=O)[O-])ccc2c(=O)[nH]1` [Compound 66] the “hPARP-1 inhibitor activity compared with compound 57 (SAR, in words)” value (hPARP-1) was “dramatic decrease in activity” and the IC50 (hPARP-1) was > 10 µM.
In the case of `C=CCSc1nc2ccccc2c(=O)[nH]1` [Compound 67], the IC50 (hPARP-1) is reported as > 10 µM and the “reduction in the PARPi activity compared with compound 57” value (“reduction in the PARPi activity” for short) (hPARP-1) is reported as “at least four-fold”.
For `C#CCSc1nc2ccccc2c(=O)[nH]1` [Compound 68], the IC50 (hPARP-1) was > 10 µM and the “reduction in the PARPi activity” value (hPARP-1) was “at least four-fold”.
In the case of `O=c1[nH]c(SCCC(F)=C(F)F)nc2ccccc12` [Compound 69], the IC50 (hPARP-1) is reported as > 10 µM and the “reduction in the PARPi activity” value (hPARP-1) is reported as “at least four-fold”.
`O=C(c1cc(Cc2n[nH]c(=O)c3ccccc23)ccc1F)N1CCN(C(=O)C2CC2)CC1` [OLP, olaparib] was tested, and the “cytotoxic activity as a monotherapy against MDA-MB-468” value (MDA-MB-468 cells; 72 h) was “good and selective cytotoxic activity” and the “IC10 (CV cytotoxicity assay)” value (MDA-MB-468 cells; MDA-MB-468 cells, 72 h) was 1.56 µM.
`Cn1nnc2c(C(N)=O)ncn2c1=O` [TMZ, temozolomide] was tested, and the IC50 (MCF-7 cells) was 3440 ± 1720 µM, the IC50 (184B5 cells) was 980 ± 820 µM and the IC50 (BT-474 cells; Homo sapiens, BT-474, 72 h, read-out: IC50 of TMZ, alone or combined) was 2210 ± 10 µM. It also gave an IC50 (HCC1937 cells) of 3740 ± 1500 µM and an IC50 (MDA-MB-468 cells; Homo sapiens, MDA-MB-468, 72 h, read-out: IC50 of TMZ, alone or combined) of 2060 ± 790 µM.
